Laboratory results reported in US20260242416A1, “ANTIMICROBIAL PEPTIDES” (priority 2023, published 2026).
Converted amounts (≈) assume the structure as drawn. Like-named read-outs stand apart in the source and are kept apart here. Where a SMILES comes first, the peptide text is derived from it.

Tests used:
E. coli ATCC 25922 = assay type: cell-based, Escherichia coli
How it was run: (§1)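 CLSI broth microdilution adapted for cationic peptides, in Mueller-Hinton broth, inoculum 2-8×10^5 cfu/mL. Peptides serially diluted from 128 to 0.5 μg/mL in polypropylene plates, incubated 20-24 h at 37° C. MIC = lowest concentration without visible growth.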

[1] = system: Salmonella enterica serovar Enteritidis (human clinical isolate); assay type: cell-based
How it was run: as §1

[2] = system: E. coli ATCC 25922, Salmonella Enteritidis, S. aureus ATCC 29213; assay: Broth microdilution, panel result (at least one / all strains), Example 2; assay type: cell-based; parameters: key to inhibitory activity (asterisk): *Indicates inhibitory activity; conditions: for inhibitory activity (asterisk): Table 14, against at least one of E. coli ATCC 25922, Salmonella Enteritidis, S. aureus ATCC 29213
How it was run: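 CLSI broth microdilution adapted for cationic peptides, in MHB with a final inoculum of 2-8×10^5 cfu/mL in polypropylene plates. Peptides were serially diluted from 128 down to 0.5 μg/mL and incubated 20-24 h at 37° C. MIC is the lowest concentration with no visible growth.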

S. aureus ATCC 29213 = assay type: cell-based, Staphylococcus aureus
How it was run: as §1

[3] = serovar Enteritidis (human clinical isolate)

SMILES	MIC (ug/mL) E. coli (E. coli ATCC 25922; ATCC 25922)	MIC (ug/mL) S. Enteritidis [1, 3]	inhibitory activity (asterisk) [2]	MIC (ug/mL) S. aureus (S. aureus ATCC 29213; ATCC 29213)	spectrum of antimicrobial activity ([2]; panel of E. coli, Salmonella Enteritidis, S. aureus, up to 128 μg/mL)	MIC (ug/mL) E. coli (E. coli ATCC 25922; Table 14, first value of the cell, three independent experiments, highest concentration tested 128) [µg/mL]	MIC (ug/mL) S. Enteritidis ([1]; Table 14, second value of the cell, three independent experiments, highest concentration tested 128) [µg/mL]	MIC (ug/mL) S. aureus (S. aureus ATCC 29213; Table 14, third value of the cell, three independent experiments, highest concentration tested 128) [µg/mL]
CC[C@H](C)[C@H](NC(=O)CN)C(=O)N[C@@H](Cc1ccccc1)C(=O)NCC(=O)NCC(=O)N[C@@H](Cc1c[nH]cn1)C(=O)N[C@@H](CC(C)C)C(=O)N[C@@H](CCCCN)C(=O)N[C@H](C(=O)NCC(=O)N[C@@H](CCCCN)C(=O)N[C@@H](CCCCN)C(=O)N[C@H](C(=O)N[C@@H](C)C(=O)N[C@@H](CS)C(=O)NCC(=O)N[C@@H](CC(C)C)C(=O)N[C@@H](CO)C(=O)NCC(=O)N[C@@H](CC(C)C)C(=O)N[C@@H](CS)C(=O)O)[C@@H](C)CC)C(C)C [OdTo2] (H-GIFGGHLKVGKKIACGLSGLC-OH; N-terminus and C-terminus assumed)	32 µg/mL (≈ 15.5 µM)	> 128 µg/mL	139.* GIFGGHLKVGKKIACGLSGLC	> 128 µg/mL				
CC[C@H](C)[C@H](NC(=O)CN)C(=O)N[C@@H](Cc1ccccc1)C(=O)NCC(=O)NCC(=O)N[C@@H](CC(C)C)C(=O)N[C@@H](CC(C)C)C(=O)N[C@@H](CCCCN)C(=O)N[C@@H](CCC(=O)O)C(=O)NCC(=O)N[C@@H](CCCCN)C(=O)N[C@@H](CCCCN)C(=O)N[C@H](C(=O)N[C@@H](C)C(=O)N[C@@H](CS)C(=O)NCC(=O)N[C@@H](CC(C)C)C(=O)N[C@@H](CO)C(=O)NCC(=O)N[C@@H](CC(C)C)C(=O)N[C@@H](CS)C(=O)O)[C@@H](C)CC [OdTo3] (H-GIFGGLLKEGKKIACGLSGLC-OH; N-terminus and C-terminus assumed)	32 µg/mL (≈ 15.5 µM)	> 128 µg/mL	141.* GIFGGLLKEGKKIACGLSGLC	> 128 µg/mL				
CC(C)C[C@H](NC(=O)CNC(=O)[C@H](CO)NC(=O)[C@@H](NC(=O)[C@@H](NC(=O)[C@H](CS)NC(=O)[C@H](CC(C)C)NC(=O)[C@@H](NC(=O)[C@H](CCCCN)NC(=O)[C@H](CCCCN)NC(=O)CNC(=O)[C@@H](NC(=O)CNC(=O)[C@H](CC(C)C)NC(=O)[C@@H](NC(=O)[C@H](CCCCN)NC(=O)CNC(=O)[C@H](CC(C)C)NC(=O)[C@H](CC(C)C)NC(=O)CN)C(C)C)C(C)C)C(C)C)C(C)C)C(C)C)C(=O)N[C@@H](CS)C(=O)O [PeNi2] (H-GLLGKVLGVGKKVLCVVSGLC-OH; N-terminus and C-terminus assumed)	4 µg/mL (≈ 1.96 µM)	16 to 32 µg/mL	395.* GLLGKVLGVGKKVLCVVSGLC	4 µg/mL (≈ 1.96 µM)				
CC[C@H](C)[C@H](NC(=O)CN)C(=O)N[C@@H](Cc1ccccc1)C(=O)N[C@@H](CO)C(=O)N[C@@H](CC(C)C)C(=O)N[C@H](C(=O)N[C@@H](CCCCN)C(=O)NCC(=O)N[C@@H](C)C(=O)N[C@@H](C)C(=O)N[C@@H](CCCCN)C(=O)N[C@H](C(=O)N[C@H](C(=O)N[C@@H](C)C(=O)N[C@@H](CCCCN)C(=O)NCC(=O)N[C@@H](CC(C)C)C(=O)NCC(=O)O)C(C)C)C(C)C)[C@@H](C)CC [PeNi3, GIFSLIKGAAKVVAKGLG] (H-GIFSLIKGAAKVVAKGLG-OH; N-terminus and C-terminus assumed)	16 to 32 µg/mL	64 to 128 µg/mL	1096.* GIFSLIKGAAKVVAKGLG	64 to 128 µg/mL				
CC(C)C[C@H](NC(=O)CN)C(=O)N[C@@H](CC(C)C)C(=O)NCC(=O)N[C@@H](CCCCN)C(=O)N[C@H](C(=O)N[C@@H](CC(C)C)C(=O)NCC(=O)N[C@H](C(=O)NCC(=O)N[C@@H](CCCCN)C(=O)N[C@@H](CCCCN)C(=O)N[C@H](C(=O)N[C@@H](CC(C)C)C(=O)N[C@@H](CS)C(=O)O)C(C)C)C(C)C)C(C)C [PeNi4, GLLGKVLGVGKKVLC] (H-GLLGKVLGVGKKVLC-OH; N-terminus and C-terminus assumed)	8 to 16 µg/mL	4 to 8 µg/mL	424.* GLLGKVLGVGKKVLC	4 to 8 µg/mL				
C[C@H](NC(=O)CN)C(=O)N1CCC[C@H]1C(=O)N[C@@H](CCCCN)C(=O)NCC(=O)N[C@@H](CS)C(=O)N[C@@H](Cc1c[nH]c2ccccc12)C(=O)N[C@H](C(=O)N[C@@H](CCCCN)C(=O)N[C@@H](CO)C(=O)N[C@@H](Cc1ccc(O)cc1)C(=O)N1CCC[C@H]1C(=O)N1CCC[C@H]1C(=O)N[C@@H](CCCCN)C(=O)N1CCC[C@H]1C(=O)N[C@@H](CS)C(=O)N[C@@H](CO)C(=O)NCC(=O)N[C@@H](CCCCN)C(=O)N[C@@H](CCCNC(=N)N)C(N)=O)[C@@H](C)O [PeNi12] (H-GAPKGCWTKSYPPKPCSGKR-NH2; N-terminus and C-terminus assumed)	>128/>128/>128 ug/mL	>128/>128/>128 ug/mL		>128/>128/>128 ug/mL	non-inhibitory against the panel of bacteria at the concentrations tested			
CC[C@H](C)[C@H](N)C(=O)N[C@@H](CO)C(=O)N[C@H](C(=O)N[C@@H](CCCCN)C(=O)N[C@@H](CCC(=O)O)C(=O)N[C@@H](C)C(=O)N[C@@H](CC(C)C)C(=O)N[C@@H](CCC(=O)O)C(=O)N[C@@H](Cc1c[nH]cn1)C(=O)N[C@@H](CO)C(=O)N[C@@H](Cc1ccccc1)C(=O)N[C@@H](Cc1ccccc1)C(=O)N[C@@H](Cc1c[nH]cn1)C(=O)N[C@H](C(=O)N[C@H](C(=O)N1CCC[C@H]1C(=O)N[C@@H](CCCNC(=N)N)C(=O)N[C@@H](CCCCN)C(=O)N[C@@H](Cc1c[nH]c2ccccc12)C(=O)N[C@@H](CS)C(=O)N[C@@H](CCCCN)C(=O)N[C@@H](CCCCN)C(=O)N[C@@H](Cc1c[nH]cn1)C(=O)O)C(C)C)[C@@H](C)O)[C@@H](C)CC [PoSn1] (H-ISIKEALEHSFFHTVPRKWCKKH-OH)	64/>128/>128 ug/mL	64/>128/>128 ug/mL	936.* ISIKEALEHSFFHTVPRKWCKKH	64/>128/>128 ug/mL				
CC[C@H](C)[C@H](NC(=O)[C@H](CO)NC(=O)[C@H](CC(C)C)NC(=O)[C@H](CO)NC(=O)[C@H](CCCCN)NC(=O)[C@H](CC(C)C)NC(=O)[C@H](C)NC(=O)[C@@H](N)[C@@H](C)O)C(=O)N[C@@H](CC(C)C)C(=O)N[C@@H](CCCCN)C(=O)N[C@@H](CCCCN)C(=O)N[C@@H](CC(C)C)C(=O)N[C@@H](C)C(=O)N[C@@H](CCCCN)C(=O)N[C@@H](CC(C)C)C(=O)N[C@@H](CC(N)=O)C(=O)N[C@@H](CCSC)C(=O)O [PoSn2, TALKSLSILKKLAKLNM] (H-TALKSLSILKKLAKLNM-OH; N-terminus and C-terminus assumed)			942.* TALKSLSILKKLAKLNM			64 to 128	> 128	> 128
CC[C@H](C)[C@H](NC(=O)CN)C(=O)N[C@@H](CC(C)C)C(=O)N[C@@H](CO)C(=O)NCC(=O)N[C@@H](CC(C)C)C(=O)N[C@@H](CC(C)C)C(=O)NCC(=O)N[C@@H](C)C(=O)NCC(=O)N[C@@H](CCCCN)C(=O)N[C@@H](CCCCN)C(=O)N[C@H](C(=O)N[C@H](C(=O)N[C@@H](CS)C(=O)NCC(=O)N[C@@H](CC(C)C)C(=O)N[C@@H](CO)C(=O)NCC(=O)N[C@@H](CCSC)C(=O)N[C@@H](CS)C(=O)O)C(C)C)[C@@H](C)CC [RaOm2] (H-GILSGLLGAGKKIVCGLSGMC-OH; N-terminus and C-terminus assumed)	64 to 128 µg/mL	> 128 µg/mL	629.* GILSGLLGAGKKIVCGLSGMC	> 128 µg/mL				
CC[C@H](C)[C@H](NC(=O)CN)C(=O)N[C@@H](Cc1ccccc1)C(=O)N[C@@H](CO)C(=O)N[C@@H](CC(C)C)C(=O)N[C@H](C(=O)N[C@@H](CCCCN)C(=O)NCC(=O)N[C@@H](C)C(=O)N[C@@H](C)C(=O)N[C@@H](CCCCN)C(=O)N[C@H](C(=O)N[C@H](C(=O)N[C@@H](C)C(=O)N[C@@H](CCCCN)C(=O)NCC(=O)N[C@@H](CC(C)C)C(=O)NCC(=O)N[C@@H](CCCCN)C(=O)O)C(C)C)C(C)C)[C@@H](C)CC [RaOm3, GIFSLIKGAAKVVAKGLGK] (H-GIFSLIKGAAKVVAKGLGK-OH; N-terminus and C-terminus assumed)	8 to 16 µg/mL	32 to 64 µg/mL	1099.* GIFSLIKGAAKVVAKGLGK	64 µg/mL (≈ 34.5 µM)				
CC(C)C[C@H](NC(=O)CN)C(=O)N[C@@H](CC(C)C)C(=O)NCC(=O)N[C@@H](CCCCN)C(=O)N[C@H](C(=O)N[C@@H](CC(C)C)C(=O)NCC(=O)N[C@H](C(=O)NCC(=O)N[C@@H](CCCCN)C(=O)N[C@@H](CCCCN)C(=O)N[C@H](C(=O)N[C@@H](CC(C)C)C(=O)N[C@@H](CS)C(=O)NCC(=O)N[C@H](C(=O)N[C@@H](CO)C(=O)NCC(=O)N[C@@H](CCCNC(=N)N)C(=O)N[C@@H](CS)C(=O)O)C(C)C)C(C)C)C(C)C)C(C)C [RaOm4] (H-GLLGKVLGVGKKVLCGVSGRC-OH; N-terminus and C-terminus assumed)	4 to 8 µg/mL	32 µg/mL (≈ 15.7 µM)	628.* GLLGKVLGVGKKVLCGVSGRC	64 to 128 µg/mL				
